Data: paper PMC7993387, “The preclinical inhibitor GS441524 in combination with GC376 efficaciously inhibited the proliferation of SARS-CoV-2 in the mouse respiratory tract” (Emerging Microbes & Infections, 2021)

Assays:
[1] = Cell viability (Cell Titer-Glo) in Vero E6 cells; assay type: cell-based; details: African green monkey
Description: Cell viability was determined using the Cell Titer-Glo kit (Promega, Madison, WI, USA) following the manufacturer’s instructions. Briefly, Vero E6 cells were seeded in 96-well plates with opaque walls. […] Cell Titer-Glo reagent was added to each well, and luminescence was measured using a GloMax 96 Microplate Luminometer (Promega, Madison, WI, USA).

[2] = Single-dose pharmacokinetics in SD rats; assay type: in vivo; details: for AUC(0-t) / Tmax / Vd/F / CL/F / Cmax / half-life / MRT last / MRT inf: Sprague-Dawley, rat, plasma, im; for MRT last: read-out: MRT0−t; for MRT inf: read-out: MRT0−∞
Description: (§1) Healthy SPF BALB/c mice (7-8 weeks) and SD rats (4-6 weeks) were used in a single-dose PK study. […] The blood was collected at 0, 0.083, 0.25, 0.5, 1, 2, 4, 8, 12 and 24 h and placed in a precooled polypropylene centrifuge tube containing 3.0 µl of 40% EDTAK2. Then, the whole blood was centrifuged at 7800 g/min for 10 min at 4°C. Plasma was collected and stored in a freezer at −80°C. Plasma drug concentration was analyzed using LC-MS/MS. Pharmacokinetic parameters were calculated using WinNonlin software (version 6.4), and a non-atrioventricular model was used for data fitting. The data were analyzed using Microsoft Excel 2016 and GraphPad Prism 7.0.

[3] = Single-dose pharmacokinetics in BALB/c mice; assay type: in vivo; details: for half-life / AUC(0-t) / CL/F / Cmax / Tmax / Vd/F / MRT last / MRT inf: BALB/c, mouse, plasma; for MRT last: read-out: MRT0−t; for MRT inf: read-out: MRT0−∞
Description: as §1

[4] = test system: SARS-CoV-2 (HRB26M); assay: microbe, parasite or virus in culture; assay type: cell-based; details: Severe acute respiratory syndrome coronavirus 2, Vero C1008, 24 h, combination molar ratio 1:1, read-out: EC50 (50% inhibitory concentration)
[5] = alone (GC376 111 mg/kg; GS441524 67 mg/kg)
[6] = combined (GC376 55.5 + GS441524 33.5 mg/kg)
[7] = im, BALB/c mice, alone (GC376 111 mg/kg; GS441524 67 mg/kg)
[8] = im, BALB/c mice, i.m., alone (GC376 111 mg/kg; GS441524 67 mg/kg)
[9] = im, BALB/c mice, i.m., combined (GC376 55.5 + GS441524 33.5 mg/kg)
[10] = 33.5 mg/kg, i.m., combined (GC376 55.5 + GS441524 33.5 mg/kg)
[11] = im, 33.5 mg/kg, BALB/c mice, i.m., combined (GC376 55.5 + GS441524 33.5 mg/kg)

CC(C)CC(NC(=O)OCc1ccccc1)C(=O)NC(CC1CCNC1=O)C(O)S(=O)(=O)O (centres unmarked) [GC376]
CC50 at 24 h [1]: > 250 µM
AUC(0-t) [2]: 42400 ± 6440 ng·h/mL
Tmax [2]: 1.4 ± 0.49 h
Vd/F [2]: 5.17 ± 1.87 L/kg
AUC(0-t) [2, 5]: 92100 ± 9990 ng·h/mL
CL/F [2, 5]: 20.1 mL/min/kg
Cmax [2, 5]: 12600 ± 1900 ng/mL
Tmax [2, 5]: 1.3 ± 0.6 h
Vd/F [2, 5]: 6.75 ± 1.04 L/kg
half-life [2, 5]: 3.87 ± 0.49 h
MRT last [2, 5]: 5.83 ± 0.74 h
MRT inf [2, 5]: 6.06 ± 0.64 h
CL/F [2, 6]: 21.9 mL/min/kg
Cmax [2, 6]: 11800 ± 1630 ng/mL
half-life [2, 6]: 2.75 ± 0.91 h
MRT last [2, 6]: 2.97 ± 0.41 h
MRT inf [2, 6]: 3.32 ± 0.57 h
Cmax of GC376, fold lower than GS441524 ([2]; i.m., alone): approximately 2.5 fold
clearance rate (CL/F) of GC376 relative to that of GS441524 ([2]; i.m., alone): approximately 2.9 fold
Cmax of GC376 relative to that of GS441524 ([3]; BALB/c mice, i.m., alone): approximately 1.2 fold
clearance rate (CL/F) of GC376 relative to that of GS441524 ([3]; BALB/c mice, i.m., alone): approximately 3.1 fold
half-life ([3]; (GC376 55.5 + GS441524 33.5 mg/kg)): 0.81 ± 0.22 h
AUC(0-t) [3, 7]: 55300 ± 11300 ng·h/mL
CL/F [3, 7]: 33.1 mL/min/kg
Cmax [3, 7]: 46700 ± 10700 ng/mL
Tmax [3, 7]: 0.22 ± 0.07 h
Vd/F [3, 7]: 2.87 ± 0.432 L/kg
half-life [3, 7]: 1.12 ± 0.53 h
MRT last [3, 8]: 1.05 ± 0.12 h
MRT inf [3, 8]: 1.38 ± 0.59 h
AUC(0-t) [3, 9]: 27800 ± 4410 ng·h/mL
CL/F [3, 9]: 33.9 mL/min/kg
Cmax [3, 9]: 30040 ± 220 ng/mL
Tmax [3, 9]: 0.25 h
Vd/F [3, 9]: 2.34 ± 0.617 L/kg
MRT last [3, 9]: 0.79 ± 0.09 h
MRT inf [3, 9]: 0.88 ± 0.12 h
EC50 [4]: 0.881 ± 0.109 µM

N#C[C@@]1(c2ccc3c(N)ncnn23)O[C@H](CO)[C@@H](O)[C@H]1O [GS441524]
CC50 at 24 h [1]: > 250 µM
AUC(0-t) ([2]; 33.5 mg/kg): 88300 ± 26800 ng·h/mL
Tmax ([2]; 33.5 mg/kg): 3.4 ± 1.2 h
Vd/F ([2]; 33.5 mg/kg): 2.71 ± 1.25 L/kg
CL/F [2, 10]: 6.6 mL/min/kg
Cmax [2, 10]: 10500 ± 1850 ng/mL
half-life [2, 10]: 5.13 ± 2.56 h
MRT last [2, 10]: 6.03 ± 1.37 h
MRT inf [2, 10]: 7.57 ± 2.93 h
AUC(0-t) [2, 5]: 183000 ± 64400 ng·h/mL
CL/F [2, 5]: 7.05 mL/min/kg
Cmax [2, 5]: 31000 ± 8400 ng/mL
Tmax [2, 5]: 2 ± 1.1 h
Vd/F [2, 5]: 2.25 ± 0.946 L/kg
half-life [2, 5]: 3.8 ± 1.17 h
MRT last [2, 5]: 4.5 ± 1.11 h
MRT inf [2, 5]: 4.78 ± 1.49 h
AUC0−t of GS441524, fold higher than GC376 ([2]; i.m., alone): approximately 2.0 fold
AUC0−t of GS441524 relative to that of GC376 ([3]; BALB/c mice, i.m., alone): approximately 1.9 fold
AUC(0-t) [3, 11]: 49000 ± 11700 ng·h/mL
CL/F [3, 11]: 11.8 mL/min/kg
Cmax [3, 11]: 16000 ± 2200 ng/mL
Tmax [3, 11]: 0.55 ± 0.24 h
Vd/F [3, 11]: 1.68 ± 0.282 L/kg
half-life [3, 11]: 1.67 ± 0.24 h
MRT last [3, 11]: 2.37 ± 0.73 h
MRT inf [3, 11]: 2.48 ± 0.71 h
AUC(0-t) [3, 7]: 107000 ± 16800 ng·h/mL
CL/F [3, 7]: 10.7 mL/min/kg
Cmax [3, 7]: 39600 ± 2930 ng/mL
Tmax [3, 7]: 0.8 ± 0.24 h
Vd/F [3, 7]: 1.37 ± 0.129 L/kg
half-life [3, 7]: 1.51 ± 0.16 h
MRT last [3, 8]: 2.07 ± 0.42 h
MRT inf [3, 8]: 2.15 ± 0.42 h
EC50 [4]: 5.05 ± 2.12 µM
